# Source: ChEMBL document CHEMBL3885881, “DrugMatrix”
# Organism: Rattus norvegicus
# Assay: DrugMatrix - Regimen: Daily Repeat
# Format: toxicity, organism-based, Sprague-Dawley
# Set-up: regimen Daily Repeat, gender Male, age 6-8 weeks
# Conditions: in vivo, sc, 54 mg/kg, route subcutaneous, dose level Low, […]
# [1] = 72 h, tissue Plasma, time 3 day
# [2] = 120 h, tissue Blood, time 5 day
# [3] = 120 h, tissue Plasma, time 5 day
sequence,measurement,setting,value
NYSTATIN,ABSOLUTE BASOPHIL,"72 h, tissue Blood, time 3 day",0 CELLS/uL
same,ABSOLUTE EOSINOPHIL,"72 h, tissue Blood, time 3 day",50 CELLS/uL
same,ABSOLUTE LYMPHOCYTE,"72 h, tissue Blood, time 3 day",13843 CELLS/uL
same,ABSOLUTE MONOCYTE,"72 h, tissue Blood, time 3 day",920.67 CELLS/uL
same,ABSOLUTE SEGMENTED NEUTROPHIL,"72 h, tissue Blood, time 3 day",2486.33 CELLS/uL
same,BASOPHIL,"72 h, tissue Blood, time 3 day",0%
same,EOSINOPHIL,"72 h, tissue Blood, time 3 day",0.33%
same,ERYTHROCYTE COUNT,"72 h, tissue Blood, time 3 day",5.95 x10E6/uL
same,HEMATOCRIT,"72 h, tissue Blood, time 3 day",34.97%
same,HEMOGLOBIN,"72 h, tissue Blood, time 3 day",13.07 G/DL
same,LEUKOCYTE COUNT,"72 h, tissue Blood, time 3 day",17.3 x10E3/uL
same,LYMPHOCYTE,"72 h, tissue Blood, time 3 day",80.33%
same,MEAN CORPUSCULAR HEMOGLOBIN,"72 h, tissue Blood, time 3 day",21.93 pg
same,MEAN CORPUSCULAR HEMOGLOBIN CONCENTRATION,"72 h, tissue Blood, time 3 day",37.37 G/DL
same,MEAN CORPUSCULAR VOLUME,"72 h, tissue Blood, time 3 day",58.73 fL
same,MONOCYTE,"72 h, tissue Blood, time 3 day",5.33%
same,NEUTROPHIL,"72 h, tissue Blood, time 3 day",14%
same,NUCLEATED RED BLOOD CELLS,"72 h, tissue Blood, time 3 day",0 /100WBC
same,PLATELET COUNT,"72 h, tissue Blood, time 3 day",1209 x10E3/uL
same,ALANINE AMINOTRANSFERASE,[1],35 u/L
same,ALBUMIN,[1],2.97 G/DL
same,ALKALINE PHOSPHATASE,[1],281 u/L
same,ASPARTATE AMINOTRANSFERASE,[1],75.67 u/L
same,BLOOD UREA NITROGEN,[1],18.67 mg/dL
same,CARBON DIOXIDE,[1],21.33 mmol/L
same,CHOLESTEROL,[1],62.33 mg/dL
same,CREATINE PHOSPHOKINASE,[1],212.67 u/L
same,CREATININE,[1],0.18 mg/dL
same,LACTATE DEHYDROGENASE,[1],276.67 u/L
same,LIPASE,[1],6.67 u/L
same,PHOSPHORUS,[1],11.77 mg/dL
same,POTASSIUM,[1],6.36 MEQ/L
same,SODIUM,[1],149.8 MEQ/L
same,TOTAL BILIRUBIN,[1],0.13 mg/dL
same,URIC ACID,[1],2 mg/dL
same,ABSOLUTE BASOPHIL,[2],0 CELLS/uL
same,ABSOLUTE EOSINOPHIL,[2],278 CELLS/uL
same,ABSOLUTE LYMPHOCYTE,[2],19000 CELLS/uL
same,ABSOLUTE MONOCYTE,[2],554 CELLS/uL
same,ABSOLUTE SEGMENTED NEUTROPHIL,[2],5634.67 CELLS/uL
same,BASOPHIL,[2],0%
same,EOSINOPHIL,[2],1%
same,ERYTHROCYTE COUNT,[2],5.2 x10E6/uL
same,HEMATOCRIT,[2],32.27%
same,HEMOGLOBIN,[2],12.13 G/DL
same,LEUKOCYTE COUNT,[2],25.47 x10E3/uL
same,LYMPHOCYTE,[2],76.67%
same,MEAN CORPUSCULAR HEMOGLOBIN,[2],23.37 pg
same,MEAN CORPUSCULAR HEMOGLOBIN CONCENTRATION,[2],37.63 G/DL
same,MONOCYTE,[2],2%
same,NEUTROPHIL,[2],20.33%
same,NUCLEATED RED BLOOD CELLS,[2],0 /100WBC
same,PLATELET COUNT,[2],1747 x10E3/uL
same,ALANINE AMINOTRANSFERASE,[3],31.33 u/L
same,ALBUMIN,[3],2.63 G/DL
same,ALKALINE PHOSPHATASE,[3],261.33 u/L
same,ASPARTATE AMINOTRANSFERASE,[3],76 u/L
same,BLOOD UREA NITROGEN,[3],22.33 mg/dL
same,CARBON DIOXIDE,[3],24.67 mmol/L
same,CHLORIDE,[3],107.33 MEQ/L
same,CHOLESTEROL,[3],48.67 mg/dL
same,CREATINE PHOSPHOKINASE,[3],286 u/L
same,CREATININE,[3],0.17 mg/dL
same,GLUCOSE,[3],135 mg/dL
same,LACTATE DEHYDROGENASE,[3],423.33 u/L
same,LIPASE,[3],7 u/L
same,POTASSIUM,[3],6.66 MEQ/L
same,SODIUM,[3],147.07 MEQ/L
same,TOTAL BILIRUBIN,[3],0.1 mg/dL
same,TOTAL PROTEIN,[3],5.43 G/DL
same,URIC ACID,[3],1.73 mg/dL
